# Experimental data reported in patent US11311522B1 (Cavion, Inc., priority 2018, dated 2022).
# “And” between values parts separate entries of the source, which are not always exact repeats. Equal values may be shown once.
# Experiments:
# [1] = tested on: patients with essential tremor; test: T-CALM: TETRAS total score; assay type: in vivo, human
# Method: The Total TETRAS score was defined as the sum of the TETRAS performance subscale total score and the TETRAS ADL subscale score. TETRAS TOTAL score combines both patient reported outcome and objective measurement of tremor amplitude in a single score. Analyses of the TETRAS-ADL was conducted using the same type of ANCOVA model as described for the TETRAS-PS, using two-sided tests at the alpha=0.05 level of significance (FIG. 3 and Table 3).
# [2] = tested on: patients with essential tremor; test: T-CALM: adverse events, discontinuations, ECG; assay type: in vivo, human
# Method: T-CALM employed the following dose titration scheme: Week 1 at 4 mg BID (8 mg/day), Week 2 at 8 mg BID (16 mg/day) and Weeks 3 & 4 at 10 mg BID (20 mg/day). […] Adverse Events were coded using MedDRA V20.0. Only treatment emergent adverse events with an onset date and time after the initiation of study drug until 30 days after discontinuation of drug were reported. For subjects who experience the same coded event more than once, a single event was presented. Adverse events were attributed to a study week based on the onset date, i.e. events that started on or after Visit 1 and prior to Visit 2 were classified as Study Week 1.
# Electrocardiogram results were calculated as the average of the triplicate records at each time point. Baseline was defined as the mean of the triplicate values obtained pre-dose at Day 1. If this value was not available, the mean of the triplicate records obtained at screening were used.
# Adverse events are characterized by maximum severity, drug-related adverse events, serious adverse events and adverse events leading to discontinuation of study.
# Safety procedures involved collection of all TEAEs (treatment-emergent adverse events) coded into the Medical Dictionary for Regulatory Activities (MedDRA) version 20. Adverse events were classified by maximum severity, drug-related adverse events, serious adverse events, and adverse events leading to patient discontinuation.
# slow wave activity = test: PN003: polysomnogram, slow wave activity; assay type: in vivo, human; conditions: 12 mg single dose, 24 subjects, Study PN003
# Method: A washout period of at least 2 weeks separated the treatment periods. […] The PSG recordings were initiated at each subject's habitual bedtime and continued for 8 hours.
# [3] = tested on: patients with schizophrenia; test: PN004: efficacy in acutely psychotic patients with schizophrenia (PANSS); conditions: human, in vivo
# Text: The primary efficacy endpoint was the mean change from baseline in the Positive and Negative Syndrome Scale (PANSS) total score at Week 4; secondary efficacy endpoints included responder rates on the PANSS total score at Week 4 and the change from baseline in the Clinical Global Impressions—Severity of Illness Scale at Week 4. Safety was monitored by adverse events, laboratory evaluations, ECGs, Holter monitoring, vital signs, the Simpson-Angus Scale, the Barnes Akathisia Rating Scale, the Abnormal Involuntary Movement Scale, and the Columbia Suicide-Severity Rating scale (C-SSRS).
# [4] = doses up to 20 μM
# in vivo = conditions: male, Beagle, dog, plasma, po, 20 mg/kg/day
# [5] = 4-week oral toxicology in rats (with FOB); conditions: for NOAEL at 4 weeks / AUC / Cmax: rat; for NOAEL at 4 weeks: in vivo; for AUC / Cmax: plasma, Day 28, mean (SD)
# [6] = Cardiovascular telemetry in conscious dogs, oral; conditions: dog
# cardiovascular function = test: Cardiovascular telemetry in conscious dogs, oral
# [7] = Exploratory embryofetal development study in rats
# [8] = Sprague-Dawley rat, 30, 300, or 2000 mg/kg/day oral gavage for 4 weeks
# [9] = Sprague-Dawley rat, oral gavage GD 6 through GD 20
smiles,measurement,setting,value
CC(C)c1ccc(CC(=O)N[C@H](C)c2ccc(OCC(F)(F)F)cn2)cc1 [CX-8998],"Change from baseline in TETRAS-Total, LS mean",[1]; Day 15 (8 mg BID),−7.5±1.42 and −7.5
same,"Change from baseline in TETRAS-Total, LS mean",[1]; Day 28 (10 mg BID),−9.0±1.66 and −9
same,>5 to 10 point worsening,"[1]; TETRAS Total, Day 15",0 n (%)
same,>10 point worsening,"[1]; TETRAS Total, Day 15",0 n (%)
same,0 change,"[1]; TETRAS Total, Day 28",0 n (%)
same,>5 to 10 point worsening,"[1]; TETRAS Total, Day 28",0 n (%)
same,>10 point worsening,"[1]; TETRAS Total, Day 28",0 n (%)
same,"Discontinuation due to Nervous System Disorders, subjects n (%)",[2]; N = 48,4 (8%)
same,"Discontinuation due to Psychiatric Disorders, subjects n (%)",[2]; N = 48,4 (8%)
same,"Dosage reduced Due to adverse event, subjects n (%)",[2]; N = 48,3 (6%)
same,"Dosage reduced during study, subjects n (%)",[2]; N = 48,4 (8%)
same,"Subjects with at least 1 event leading to discontinuation, n (%)",[2]; N = 48,8 (17%)
same,"Dosage reduced Due to other reasons, subjects n (%)","[2]; N = 48, subject had inadequate drug supply at Visit 4",1 (2%)^3
same,"TEAE Abnormal dreams, subjects n (%)","[2]; Safety Analysis Set, n = 48",2 (4%)
same,"TEAE Disturbance in attention, subjects n (%)","[2]; Safety Analysis Set, n = 48",2 (4%)
same,"TEAE Dizziness, subjects n (%)","[2]; Safety Analysis Set, n = 48",10 (21%)
same,"TEAE Dry mouth, subjects n (%)","[2]; Safety Analysis Set, n = 48",2 (4%)
same,"TEAE Dysgeusia, subjects n (%)","[2]; Safety Analysis Set, n = 48",2 (4%)
same,"TEAE Ear and Labyrinth Disorders (system organ class), subjects n (%)","[2]; Safety Analysis Set, n = 48",2 (4%)
same,"TEAE Euphoric mood, subjects n (%)","[2]; Safety Analysis Set, n = 48",3 (6%)
same,"TEAE Gastrointestinal Disorders (system organ class), subjects n (%)","[2]; Safety Analysis Set, n = 48",9 (19%)
same,"TEAE Hallucination, subjects n (%)","[2]; Safety Analysis Set, n = 48",2 (4%)
same,"TEAE Headache, subjects n (%)","[2]; Safety Analysis Set, n = 48",4 (8%)
same,"TEAE Hypesthesia, subjects n (%)","[2]; Safety Analysis Set, n = 48",0
same,"TEAE Infections and Infestations (system organ class), subjects n (%)","[2]; Safety Analysis Set, n = 48",4 (8%)
same,"TEAE Insomnia, subjects n (%)","[2]; Safety Analysis Set, n = 48",3 (6%)
same,"TEAE Nausea, subjects n (%)","[2]; Safety Analysis Set, n = 48",1 (2%)
same,"TEAE Nervous System Disorders (system organ class), subjects n (%)","[2]; Safety Analysis Set, n = 48",20 (42%)
same,"TEAE Paraesthesia, subjects n (%)","[2]; Safety Analysis Set, n = 48",2 (4%)
same,"TEAE Somnolence, subjects n (%)","[2]; Safety Analysis Set, n = 48",1 (2%)
same,"TEAE Tinnitus, subjects n (%)","[2]; Safety Analysis Set, n = 48",2 (4%)
same,"TEAE Urinary Tract Infection, subjects n (%)","[2]; Safety Analysis Set, n = 48",2 (4%)
same,"TEAE Vomiting, subjects n (%)","[2]; Safety Analysis Set, n = 48",0
same,"Subjects with at least 1 treatment-emergent adverse event, n (%)","[2]; Safety Analysis Set, n = 48, titrated up to 10 mg BID, 4 weeks",28 (58%)
same,Adverse Event (MedDRA Preferred Term) leading to dosage reduction,"[2]; Subject 26-001, Study Day 25, from 10 mg BID to 8 mg BID, Completed study",Anxiety
same,Adverse Event (MedDRA Preferred Term) leading to dosage reduction,"[2]; Subject 31-023, Study Day 8, from 8 mg BID to 4 mg BID, Withdrawn (Day 8), term wraps over r24-r26: Electrocardiogram T-wave abnormal",Electrocardio-
same,Adverse Event (MedDRA Preferred Term) leading to dosage reduction,"[2]; Subject 33-004, Study Day 8, from 4 mg BID to 2 mg BID, Withdrawn (Day 45) Lost to follow-up",Headache
same,Abnormal dreams,"[2]; TEAE, n = 48",2 (4%) n (%)
same,Disturbance in attention,"[2]; TEAE, n = 48",2 (4%) n (%)
same,Dizziness,"[2]; TEAE, n = 48",10 (21%) n (%)
same,Dry mouth,"[2]; TEAE, n = 48",2 (4%) n (%)
same,Dysgeusia,"[2]; TEAE, n = 48",2 (4%) n (%)
same,Ear and Labyrinth Disorders,"[2]; TEAE, n = 48",2 (4%) n (%)
same,Euphoric mood,"[2]; TEAE, n = 48",3 (6%) n (%)
same,Gastrointestinal Disorders,"[2]; TEAE, n = 48",9 (19%) n (%)
same,Hallucination,"[2]; TEAE, n = 48",2 (4%) n (%)
same,Headache,"[2]; TEAE, n = 48",4 (8%) n (%)
same,Hypesthesia,"[2]; TEAE, n = 48",0 n (%)
same,Infections and Infestations,"[2]; TEAE, n = 48",4 (8%) n (%)
same,Insomnia,"[2]; TEAE, n = 48",3 (6%) n (%)
same,Nausea,"[2]; TEAE, n = 48",1 (2%) n (%)
same,Nervous System Disorders,"[2]; TEAE, n = 48",20 (42%) n (%)
same,Paraesthesia,"[2]; TEAE, n = 48",2 (4%) n (%)
same,Somnolence,"[2]; TEAE, n = 48",1 (2%) n (%)
same,Tinnitus,"[2]; TEAE, n = 48",2 (4%) n (%)
same,Urinary Tract Infection,"[2]; TEAE, n = 48",2 (4%) n (%)
same,Vomiting,"[2]; TEAE, n = 48",0 n (%)
same,Discontinuation due to adverse events,[2]; in vivo,8 (17%) n (%)
same,Dosage reduction due to TEAEs,[2]; in vivo,6%
same,Electrocardiogram outlier analysis,[2]; in vivo,no CVS safety signals
same,"Slow Wave Activity during the First One-Third of the Sleep Period, Geometric Mean",slow wave activity,26.36 μV^2/Hz
same,"Slow Wave Activity during the First One-Third of the Sleep Period, Raw Value Mean",slow wave activity,30.51 μV^2/Hz
same,PANSS total score change at Week 4 and secondary endpoints vs placebo,[3],No statistically significant differences
same,Alkaline elution assay result,[4],negative
same,AUC,in vivo,425 µM·h
same,FOB findings,[5]; [8],non-adverse FOB changes were also
same,female reproductive organ findings (extended diestrus),[5]; [8],Reversible changes
same,NOEL,[5]; both sexes,< 30 mg/kg/day
same,NOAEL at 4 weeks,"[5]; both, Sprague-Dawley, po",30 mg/kg
same,LOEL for the FOB,"[5]; female rats, Day 1",30 mg/kg/day
same,NOAEL at 4 weeks,"[5]; female, oral",< 30 mg/kg/day
same,AUC,"[5]; female, po, 300 mg/kg/day, AUC24, Female rats, 300 mg/kg/day oral gavage",438 µM·h
same,Cmax,"[5]; female, po, 300 mg/kg/day, Female rats, 300 mg/kg/day oral gavage",28.3 µM
same,Cmax,"[5]; female, po, 2000 mg/kg/day, Female rats, 2000 mg/kg/day oral gavage",33.5 µM
same,NOAEL at 4 weeks,"[5]; male, oral",30 mg/kg/day
same,AUC,"[5]; male, po, 30 mg/kg/day, AUC24, Male rats, 30 mg/kg/day oral gavage",35.1 µM·h
same,Cmax,"[5]; male, po, 300 mg/kg/day, Male rats, 300 mg/kg/day oral gavage",26.1 µM
same,AUC,"[5]; male, po, 2000 mg/kg/day, AUC24, Male rats, 2000 mg/kg/day oral gavage",467 µM·h
same,Cmax,"[5]; male, po, 2000 mg/kg/day, Male rats, 2000 mg/kg/day oral gavage",28.9 µM
same,NOAEL,[6]; in vivo,20 mg/kg
same,Cmax,"[6]; plasma, po, 20 mg/kg",~30 µM
same,Peak change in QT interval,cardiovascular function; 20 mg/kg oral,-27 ms
same,Peak change in heart rate,cardiovascular function; 20 mg/kg oral,+28 beats/min
same,Peak decrease in QT interval,cardiovascular function; 300 mg/kg oral,-14 ms
same,Peak increase in heart rate,cardiovascular function; 300 mg/kg oral,+47 beats/min
same,NOEL,"cardiovascular function; dog, in vivo",2 mg/kg
same,dose at which developmental toxicity was observed,[7]; [9],observed at ≥100 mg/kg/day.
same,dose at which maternal toxicity was excessive,[7]; [9],1000 mg/kg/day
same,dose at which maternal toxicity was observed,[7]; [9],≥ 30 mg/kg/day
same,Doses with developmental toxicity (decreased live fetal body weight),"[7]; rat, in vivo",≥ 100 mg/kg/day
same,Doses with maternal toxicity,"[7]; rat, in vivo",≥ 30 mg/kg/day
